The source of these data is paper PMC11842024, “Reversible male contraception by targeted inhibition of serine/threonine kinase 33” (Science (New York, N.Y.), 2024).

Test [1] has as its target T1, FER (Homo sapiens, UniProt P16591).
T1 construct: against 192 full-length protein kinases in human embryonic kidney 293 (HEK293) cells; host or cells: HEK293
In words: NanoBRET K192 assay (Promega). The class given is cell-based. The following applies: HEK293 cells. As to the method:
(§1) NanoBRET Target Engagement K192 assay. HEK293 cells (ATCC) were cultured in DMEM (Gibco) + 10% FBS (Seradigm) and incubated in a humidified 37°C/5% CO2 incubator. The NanoBRET Target Engagement K192 Kinase Selectivity System (Promega) contains 192 unique transfection-ready NanoLuc/Kinase fusions, pre-diluted in either transfection carrier DNA or relevant cyclin DNA. These NanoLuc/Kinase fusion constructs were transfected into HEK293 cells using Fugene HD (Promega) according to the manufacturer’s protocol. Briefly, 10 µL of a 20 µg/mL DNA solution was added to white, TC-treated 96-well assay plates (Corning), followed by 30 µL of a diluted Fugene HD solution (20 µL Fugene/1 mL Opti-MEM). After transfection complex formation, HEK293 cells were resuspended at 3.3 × 105 c/mL in Opti-MEM + 1% FBS and added at a volume of 60 µL per well, to result in approximately 20000 cells/well. Cells were incubated in a humidified 37°C/5% CO2 incubator for 20 hours. Tracer K-10 (Promega) was prepared at a 100× concentration in DMSO (Sigma) and diluted to a working concentration of 10× in tracer dilution buffer (12.5 mM HEPES, 31.25% PEG400, pH 7.5) (Promega). Test compounds were prepared as concentrated stock solutions in DMSO and diluted in Opti-MEM to prepare 10× working stocks. Cells were equilibrated with test compounds and Tracer K-10 for 2 hours prior to BRET measurements. For target engagement analysis, Tracer K-10 was added to cells at one of 4 […]
(§2) manufacturer’s protocol. To measure BRET, NanoBRET NanoGlo Substrate and Extracellular NanoLuc Inhibitor (Promega) were added according to the manufacturer’s protocol, and filtered luminescence was measured on a GloMax Discover luminometer equipped with 450 nm BP filter (donor) and 600 nm LP filter (acceptor), using 0.5 s integration time. Milli-BRET units are calculated by multiplying the raw BRET units by 1000.
(§3) For Fractional Occupancy determination, the following equation was used:
(§4) % Occupancy = [1-(X-Z)/(Y-Z)]×100
(§5) Where X = BRET in the presence of the test compound and Tracer K10, Y = BRET in the presence of Tracer K10 only, and Z = Full occupancy, or BRET in the absence of the test compound and […]
(§6) Tracer K10. […]

Test [2] deals with T2, NTRK1 (Homo sapiens, UniProt P04629).
T2 construct: against 192 full-length protein kinases in human embryonic kidney 293 (HEK293) cells; host or cells: HEK293
T2 sequence (P04629 33-796): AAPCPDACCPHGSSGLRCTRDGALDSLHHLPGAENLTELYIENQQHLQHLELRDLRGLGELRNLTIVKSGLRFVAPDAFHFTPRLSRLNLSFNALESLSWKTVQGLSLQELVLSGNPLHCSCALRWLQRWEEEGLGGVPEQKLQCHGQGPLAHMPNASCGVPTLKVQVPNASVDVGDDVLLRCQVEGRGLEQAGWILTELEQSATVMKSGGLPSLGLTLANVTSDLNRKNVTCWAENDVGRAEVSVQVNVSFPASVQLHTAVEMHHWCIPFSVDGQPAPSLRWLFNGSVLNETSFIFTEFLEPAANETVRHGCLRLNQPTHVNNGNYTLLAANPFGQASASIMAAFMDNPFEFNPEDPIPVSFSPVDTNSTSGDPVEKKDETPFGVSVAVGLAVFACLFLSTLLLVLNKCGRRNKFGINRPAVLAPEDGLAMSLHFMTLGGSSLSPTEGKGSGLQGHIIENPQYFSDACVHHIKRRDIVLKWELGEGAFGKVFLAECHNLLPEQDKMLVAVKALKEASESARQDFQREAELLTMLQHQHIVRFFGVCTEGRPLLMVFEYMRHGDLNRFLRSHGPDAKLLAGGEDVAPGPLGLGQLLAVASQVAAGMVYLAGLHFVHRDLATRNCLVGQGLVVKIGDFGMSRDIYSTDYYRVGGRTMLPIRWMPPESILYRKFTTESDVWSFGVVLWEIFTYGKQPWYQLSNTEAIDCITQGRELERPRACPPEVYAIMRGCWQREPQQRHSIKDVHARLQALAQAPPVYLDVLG
The test is described as follows: NanoBRET K192 assay (Promega). The following applies: HEK293 cells. The class given is cell-based. As to the method: as §1, §2, §3, §4, §5, §6
For orientation: In BRET a luciferase serves as donor, and the signal depends on an acceptor being close.

Test [3] deals with T3, MAP4K2 (Homo sapiens, UniProt Q12851).
T3 construct: against 192 full-length protein kinases in human embryonic kidney 293 (HEK293) cells; host or cells: HEK293
In words: NanoBRET K192 assay (Promega). The class given is cell-based. The following applies: HEK293 cells. As to the method: as §1, §2, §3, §4, §5, §6

Test [4] has as its target T4, EPHA1 (Homo sapiens, UniProt P21709).
T4 construct: against 192 full-length protein kinases in human embryonic kidney 293 (HEK293) cells; host or cells: HEK293
The test is described as follows: NanoBRET K192 assay (Promega). The class given is cell-based. The following applies: HEK293 cells. As to the method: as §1, §2, §3, §4, §5, §6

Test [5] addresses T5, PTK2B (Homo sapiens, UniProt Q14289).
T5 construct: against 192 full-length protein kinases in human embryonic kidney 293 (HEK293) cells; host or cells: HEK293
The test is described as follows: NanoBRET K192 assay (Promega). The class given is cell-based. The following applies: HEK293 cells. As to the method:
as §1, §2, §3, §4, §5, §6

In test [6] the target is T6, BMP2K (Homo sapiens, UniProt Q9NSY1).
T6 construct: against 192 full-length protein kinases in human embryonic kidney 293 (HEK293) cells; host or cells: HEK293
T6 sequence (Q9NSY1 whole entry): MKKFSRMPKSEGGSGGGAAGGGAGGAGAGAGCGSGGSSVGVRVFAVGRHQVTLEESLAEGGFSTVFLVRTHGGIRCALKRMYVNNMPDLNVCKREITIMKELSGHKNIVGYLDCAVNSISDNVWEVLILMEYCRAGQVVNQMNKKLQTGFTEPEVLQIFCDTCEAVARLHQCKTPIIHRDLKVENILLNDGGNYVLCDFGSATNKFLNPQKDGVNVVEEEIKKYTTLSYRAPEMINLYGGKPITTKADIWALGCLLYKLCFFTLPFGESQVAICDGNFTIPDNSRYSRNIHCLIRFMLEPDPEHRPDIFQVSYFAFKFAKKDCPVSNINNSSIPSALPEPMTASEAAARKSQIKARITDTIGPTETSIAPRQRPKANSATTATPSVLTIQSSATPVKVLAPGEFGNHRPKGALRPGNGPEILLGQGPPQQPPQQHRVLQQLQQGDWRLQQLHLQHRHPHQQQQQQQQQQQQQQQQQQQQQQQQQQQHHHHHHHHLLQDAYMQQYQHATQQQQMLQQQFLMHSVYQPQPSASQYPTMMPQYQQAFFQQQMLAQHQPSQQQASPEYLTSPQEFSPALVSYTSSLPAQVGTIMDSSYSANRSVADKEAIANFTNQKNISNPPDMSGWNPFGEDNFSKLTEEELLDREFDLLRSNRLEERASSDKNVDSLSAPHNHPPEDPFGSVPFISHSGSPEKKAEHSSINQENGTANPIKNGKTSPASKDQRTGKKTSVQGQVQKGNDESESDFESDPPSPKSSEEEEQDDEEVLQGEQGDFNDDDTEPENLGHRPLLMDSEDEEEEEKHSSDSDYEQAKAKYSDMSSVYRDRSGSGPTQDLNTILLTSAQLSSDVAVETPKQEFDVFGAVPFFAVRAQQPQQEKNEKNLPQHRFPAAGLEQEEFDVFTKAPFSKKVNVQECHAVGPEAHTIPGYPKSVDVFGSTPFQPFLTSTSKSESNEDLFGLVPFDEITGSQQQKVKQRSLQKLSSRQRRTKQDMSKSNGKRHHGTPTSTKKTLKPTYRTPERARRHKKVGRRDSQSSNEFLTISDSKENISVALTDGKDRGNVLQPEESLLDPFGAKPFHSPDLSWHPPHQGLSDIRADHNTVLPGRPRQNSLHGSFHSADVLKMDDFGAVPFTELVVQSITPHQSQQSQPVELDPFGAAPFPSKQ
In words: NanoBRET K192 assay (Promega). The class given is cell-based. The following applies: HEK293 cells. As to the method: as §1, §2, §3, §4, §5, §6

The target of test [7] is T7, AAK1 (Homo sapiens, UniProt Q2M2I8).
T7 construct: against 192 full-length protein kinases in human embryonic kidney 293 (HEK293) cells; host or cells: HEK293
T7 sequence (Q2M2I8 whole entry): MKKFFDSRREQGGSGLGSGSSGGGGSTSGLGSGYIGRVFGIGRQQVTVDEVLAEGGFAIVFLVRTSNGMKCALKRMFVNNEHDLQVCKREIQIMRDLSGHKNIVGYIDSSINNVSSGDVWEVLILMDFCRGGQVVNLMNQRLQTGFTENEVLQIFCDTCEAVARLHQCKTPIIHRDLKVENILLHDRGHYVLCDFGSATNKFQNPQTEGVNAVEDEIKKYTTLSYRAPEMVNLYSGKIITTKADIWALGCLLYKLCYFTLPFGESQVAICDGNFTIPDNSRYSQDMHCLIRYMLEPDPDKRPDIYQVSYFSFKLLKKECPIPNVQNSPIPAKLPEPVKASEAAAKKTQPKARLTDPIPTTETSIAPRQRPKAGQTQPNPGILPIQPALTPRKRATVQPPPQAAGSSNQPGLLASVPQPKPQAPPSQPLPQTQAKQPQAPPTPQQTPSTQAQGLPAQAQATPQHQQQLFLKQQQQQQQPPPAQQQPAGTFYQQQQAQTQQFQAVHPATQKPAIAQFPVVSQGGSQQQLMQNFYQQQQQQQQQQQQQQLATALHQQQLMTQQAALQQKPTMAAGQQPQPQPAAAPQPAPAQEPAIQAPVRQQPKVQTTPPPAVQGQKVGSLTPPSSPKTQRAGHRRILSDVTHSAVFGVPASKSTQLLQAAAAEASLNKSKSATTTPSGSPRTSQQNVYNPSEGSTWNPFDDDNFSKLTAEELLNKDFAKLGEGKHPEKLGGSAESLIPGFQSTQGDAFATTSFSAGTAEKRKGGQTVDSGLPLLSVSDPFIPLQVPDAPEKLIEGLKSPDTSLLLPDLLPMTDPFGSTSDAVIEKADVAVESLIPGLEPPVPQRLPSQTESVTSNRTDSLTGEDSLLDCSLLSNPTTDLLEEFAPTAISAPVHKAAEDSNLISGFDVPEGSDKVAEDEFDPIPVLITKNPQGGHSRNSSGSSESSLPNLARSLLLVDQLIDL
In words: NanoBRET K192 assay (Promega). The following applies: HEK293 cells. The class given is cell-based. As to the method: as §1, §2, §3, §4, §5, §6

In test [8] the target is T8, GAK (Homo sapiens, UniProt O14976).
T8 construct: against 192 full-length protein kinases in human embryonic kidney 293 (HEK293) cells; host or cells: HEK293
The test is described as follows: NanoBRET K192 assay (Promega). The class given is cell-based. The following applies: HEK293 cells. As to the method: as §1, §2, §3, §4, §5, §6

Test [9] deals with T9, PTK2 (Homo sapiens, UniProt Q05397).
T9 construct: against 192 full-length protein kinases in human embryonic kidney 293 (HEK293) cells; host or cells: HEK293
The test is described as follows: NanoBRET K192 assay (Promega). The following applies: HEK293 cells. The class given is cell-based. As to the method: as §1, §2, §3, §4, §5, §6

The target of test [10] is T10, PHKG2 (Homo sapiens, UniProt P15735).
T10 construct: against 192 full-length protein kinases in human embryonic kidney 293 (HEK293) cells; host or cells: HEK293
T10 sequence (P15735 whole entry): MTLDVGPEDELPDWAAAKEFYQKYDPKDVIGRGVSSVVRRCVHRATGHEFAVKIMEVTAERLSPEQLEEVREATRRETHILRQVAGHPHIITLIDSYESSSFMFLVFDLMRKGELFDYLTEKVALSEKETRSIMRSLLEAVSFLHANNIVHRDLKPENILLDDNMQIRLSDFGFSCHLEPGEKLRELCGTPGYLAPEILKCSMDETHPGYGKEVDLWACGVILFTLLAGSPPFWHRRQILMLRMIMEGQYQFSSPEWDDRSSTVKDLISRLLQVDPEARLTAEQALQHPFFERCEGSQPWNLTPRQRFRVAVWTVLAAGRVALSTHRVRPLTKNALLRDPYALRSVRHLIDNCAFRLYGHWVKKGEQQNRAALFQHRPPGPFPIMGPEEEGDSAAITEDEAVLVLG
In words: NanoBRET K192 assay (Promega). The class given is cell-based. The following applies: HEK293 cells. As to the method: as §1, §2, §3, §4, §5, §6

Test [11] deals with T11, CSNK1G2 (Homo sapiens, UniProt P78368).
T11 construct: against 192 full-length protein kinases in human embryonic kidney 293 (HEK293) cells; host or cells: HEK293
In words: NanoBRET K192 assay (Promega). The class given is cell-based. The following applies: HEK293 cells. As to the method:
as §1, §2, §3, §4, §5, §6

In test [12] the target is T12, FLT3 (Homo sapiens, UniProt P36888).
T12 construct: against 192 full-length protein kinases in human embryonic kidney 293 (HEK293) cells; host or cells: HEK293
T12 sequence (P36888 27-993): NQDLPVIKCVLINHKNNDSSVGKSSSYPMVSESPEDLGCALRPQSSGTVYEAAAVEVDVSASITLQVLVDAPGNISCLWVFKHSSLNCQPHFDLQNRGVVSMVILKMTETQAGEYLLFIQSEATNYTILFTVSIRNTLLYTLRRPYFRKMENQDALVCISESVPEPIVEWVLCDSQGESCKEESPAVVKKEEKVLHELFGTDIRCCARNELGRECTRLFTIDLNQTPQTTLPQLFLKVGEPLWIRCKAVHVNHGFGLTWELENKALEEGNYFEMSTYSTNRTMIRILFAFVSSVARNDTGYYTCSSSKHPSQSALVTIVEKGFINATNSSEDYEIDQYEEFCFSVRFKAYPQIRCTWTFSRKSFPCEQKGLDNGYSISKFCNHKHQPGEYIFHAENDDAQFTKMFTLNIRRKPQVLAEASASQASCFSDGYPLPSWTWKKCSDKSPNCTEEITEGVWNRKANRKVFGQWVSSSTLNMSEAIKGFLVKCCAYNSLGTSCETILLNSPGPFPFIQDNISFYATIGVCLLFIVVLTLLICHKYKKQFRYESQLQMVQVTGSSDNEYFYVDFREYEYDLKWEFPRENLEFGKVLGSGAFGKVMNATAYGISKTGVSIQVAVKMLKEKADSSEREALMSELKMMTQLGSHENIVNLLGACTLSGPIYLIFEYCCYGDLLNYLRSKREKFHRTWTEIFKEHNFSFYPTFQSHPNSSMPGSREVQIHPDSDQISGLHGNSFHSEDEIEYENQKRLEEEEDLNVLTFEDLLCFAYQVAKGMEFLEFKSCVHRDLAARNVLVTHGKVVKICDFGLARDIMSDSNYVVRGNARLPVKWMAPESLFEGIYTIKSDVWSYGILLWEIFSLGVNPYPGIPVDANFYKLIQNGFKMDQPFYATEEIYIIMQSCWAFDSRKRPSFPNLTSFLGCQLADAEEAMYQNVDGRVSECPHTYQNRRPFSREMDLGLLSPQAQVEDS
The test is described as follows: NanoBRET K192 assay (Promega). The class given is cell-based. The following applies: HEK293 cells. As to the method: as §1, §2, §3, §4, §5, §6

In test [13] the target is T13, PHKG1 (Homo sapiens, UniProt Q16816).
T13 construct: against 192 full-length protein kinases in human embryonic kidney 293 (HEK293) cells; host or cells: HEK293
The test is described as follows: NanoBRET K192 assay (Promega). The class given is cell-based. The following applies: HEK293 cells. As to the method: as §1, §2, §3, §4, §5, §6

Test [14] concerns the target T14, STK4 (Homo sapiens, UniProt Q13043).
T14 construct: against 192 full-length protein kinases in human embryonic kidney 293 (HEK293) cells; host or cells: HEK293
The test is described as follows: NanoBRET K192 assay (Promega). The class given is cell-based. The following applies: HEK293 cells. As to the method:
as §1, §2, §3, §4, §5, §6

Test [15] deals with T15, NTRK2 (Homo sapiens, UniProt Q16620).
T15 construct: against 192 full-length protein kinases in human embryonic kidney 293 (HEK293) cells; host or cells: HEK293
T15 sequence (Q16620 32-822): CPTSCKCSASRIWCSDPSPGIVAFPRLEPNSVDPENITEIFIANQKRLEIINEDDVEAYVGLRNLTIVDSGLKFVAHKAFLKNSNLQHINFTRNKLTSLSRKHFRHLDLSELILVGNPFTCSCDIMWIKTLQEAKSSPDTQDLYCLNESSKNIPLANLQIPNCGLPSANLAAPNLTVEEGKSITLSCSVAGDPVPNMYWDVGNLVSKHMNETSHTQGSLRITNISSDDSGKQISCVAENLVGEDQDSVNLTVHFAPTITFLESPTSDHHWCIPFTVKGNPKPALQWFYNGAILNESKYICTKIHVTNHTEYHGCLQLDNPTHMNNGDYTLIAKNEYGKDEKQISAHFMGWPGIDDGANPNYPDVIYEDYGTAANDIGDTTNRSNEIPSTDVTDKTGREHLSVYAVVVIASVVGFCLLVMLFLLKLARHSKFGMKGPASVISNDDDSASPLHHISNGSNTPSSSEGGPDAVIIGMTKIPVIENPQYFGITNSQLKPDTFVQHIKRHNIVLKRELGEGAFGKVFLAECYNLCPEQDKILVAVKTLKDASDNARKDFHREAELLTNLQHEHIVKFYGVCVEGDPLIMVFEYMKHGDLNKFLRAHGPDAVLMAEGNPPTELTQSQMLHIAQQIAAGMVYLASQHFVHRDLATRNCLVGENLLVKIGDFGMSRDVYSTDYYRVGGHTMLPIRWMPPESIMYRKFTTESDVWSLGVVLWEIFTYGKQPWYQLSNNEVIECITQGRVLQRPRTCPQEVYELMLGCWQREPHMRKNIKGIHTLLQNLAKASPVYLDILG
In words: NanoBRET K192 assay (Promega). The class given is cell-based. The following applies: HEK293 cells. As to the method: as §1, §2, §3, §4, §5, §6

The target of test [16] is CLK2 (Homo sapiens, UniProt P49760). The test is described as follows: Z'-LYTE activity assay (ThermoFisher SelectScreen). The class given is biochemical. Details: purchased SelectScreen Services (ThermoFisher). The following applies: [ATP] = Kmapp. The text has this:
(§7) In vitro biochemical assays. Several small molecule assays were outsourced to SelectScreen Services (ThermoFisher) for STK33 and for off-target kinases (data sets are available on demand).
(§8) These assays are LanthaScreen (binding assay) and Z’-LYTE (activity assay). Dose-responses were done with at least 5 different concentrations in duplicates, and parameters were optimized by calculations described below and provided with standard errors. […]
(§9) Calculation of Ki values for kinase inhibitors from Z’-LYTE inhibition data. The Morrison equation with [ATP] = Kmapp for competitive inhibition (GraphPad Prism 7, San Diego, CA) was used to get Ki values. Since Kd and Ki values are defined the same way, in other words, Kd = [E] [I] / [EI] = Ki, Kd and Ki values can be compared. […]

In test [17] the target is CLK1 (Homo sapiens, UniProt P49759). The test is described as follows: Z'-LYTE activity assay (ThermoFisher SelectScreen). The following applies: [ATP] = Kmapp. The class given is biochemical. Further details: purchased SelectScreen Services (ThermoFisher).
From the text: as §7, §8, §9

Test [18] addresses RET (Homo sapiens, UniProt P07949). In words: Z'-LYTE activity assay (ThermoFisher SelectScreen). The class given is biochemical. The following applies: [ATP] = Kmapp. Further details: purchased SelectScreen Services (ThermoFisher).
From the text: as §7, §8, §9

Take `O=C(c1ccc2[nH]nc(C#Cc3ccccc3-c3ccccc3)c2c1)N1CC2(CCCNC2)C1` [CDD-2807]: the receptor occupancy at 1 µM in test [1] worked out at 38 ± 1.2%; in test [2], 31.8 ± 1%; in test [3], 40 ± 0.6%; in test [4], 30.6 ± 2.4%; in test [5] it was 45.2 ± 0.2%; in [6] it was 54.5 ± 0.3%. Further, the receptor occupancy at 1 µM came out at 56.4 ± 1.3% in test [7]; 57.4 ± 0.1% in test [8]; 76.5 ± 0.2% in test [9]; 59.2 ± 1.2% in test [10]; 32.4 ± 1.3% in test [11]; 30.3 ± 2.6% in test [12]. The results for the receptor occupancy at 1 µM in [13], in test [14] and in test [15] were 58.4 ± 2.9%, 30.3 ± 0.4% and 44.5%, respectively. Besides, the Ki was determined as 1.3 nM in [16], 3.1 nM in test [17] and 0.3 nM in [18].

The term Ki denotes the dissociation constant of the complex between target and ligand, obtained from inhibition or displacement. A low value points to a stronger hold on the target.
